These results are taken from patent publication US5928896A, “Polypeptides that include conformation-constraining groups which flank a protein--protein interaction site” (Virginia Commonwealth University, priority 1997, dated 1999).

Where a SMILES comes first, the peptide text is derived from it.

In data set [1] the test system is receptors of sweet tasting papillae. The following applies: comparison; cited from earlier work.
The nature of data set [2]: Preliminary studies of hypotensive peptide versus diltiazem (diastolic pressure, arrhythmia). The data set is classed as in vivo, rat. The protocol: Dose: 60 to 120 μg per rat (5 to 10 μM).

Take `COC(=O)[C@H](Cc1ccccc1)NC(=O)[C@@H](N)CC(=O)O` [aspartame] (H-Asp-Phe-OMe): the “Sweetness relative to sugar” value in data set [1] is 160 times sweeter than sugar.

Consider `COc1ccc([C@@H]2Sc3ccccc3N(CCN(C)C)C(=O)[C@@H]2OC(C)=O)cc1` [diltiazem], for which, in data set [2], the “Effect on diastolic pressure” value is recorded as “small increase in the diastolic pressure”.
